{"source": "patent US4908380A", "about": "“Pharmaceutical compositions” (Imperial Chemical Industries plc, priority 1986, dated 1990)", "key": {"thromboxane receptor": {"system": "thromboxane receptor", "assay": "Test (a): rabbit or rat aortal strip, TXA2 antagonism (agonist TXA2 or U46619)", "type": "cell-based", "settings": "±0.05", "source_text": "It is believed that TXA2 exerts its physiological action through the thromboxane receptor, at which receptor various other prostanoid contractile substances derived from arachidonic acid, such as prostaglandins H2, F2 alpha and prostaglandin D2, can exert contractile effects. There are two principal ways in which the effects of TXA2 (and also of prostaglandins H2, F2 alpha and/or D2) can be ameliorated. […] The second way is to administer a pharmacological agent which inhibits one or more of the enzymes involved in the production of TXA2 and in particular, which inhibits the enzyme known as thromboxane synthetase (TXA2 synthetase). Such an agent is said to be a TXA2 synthetase inhibitor.\nAs stated earlier, the novel compounds of formula I are antagonists of one or more of the actions of TXA2, for example certain of its actions on blood platelets, the vasculature and/or the lung.\n(a) The rabbit aortal strip model devised by Piper and Vane (Nature, 1969, 223, 29-35) or the rat aortal strip model developed by Kennedy et alia (Prostaglandins, 1982, 24, 667-689), using as agonist a freshly prepared sample of TXA2, generated by addition of arachidonic acid (25 μg) to citrated, platelet rich rabbit plasma (250 μl) and allowing the mixture to aggregate fully over 90 seconds before use; alternatively the TXA2 mimetic agent known as U46619 (described by R. L. Jones et alia in \"Chemistry, Biochemistry and Pharmacological Activity of Prostanoids\" edited by S. M. Roberts and F. Scheinmann, at page 211; Pergamon Press, 1979) may be used as the agonist; and\nUsing the above test procedures (a)-(c), the following representative results have been obtained with the compounds of formula II wherein (i) X^1 is 2-chloro, (ii) X^1 is 2-cyano; or (iii) X^1 is 4-cyano, respectively: […]"}, "[1]": {"system": "U46619 induced hypertension", "assay": "Test (d): U46619 induced hypertension in anaesthetised male rats (Alderley Park strain)", "type": "in vivo, rat", "settings": "1 hour after oral dose of 0.5 mg/kg", "protocol": "(d) Male rats (Alderley Park strain) are anaesthetised with sodium pentobarbital and blood pressure is monitored at the carotid artery. The TXA2 mimetic agent U46619 is administered intravenously at 5 μg/kg via the jugular vein to produce 20-30 mm/Hg (2640-3970 pascal) increase in systolic blood pressure. The process is repeated twice to ensure adequacy of response. A test compound is then administered either intravenously (via the jugular vein) or orally (via a cannula) directly into the stomach and the animal challenged with U46619, five minutes after dosing with test compound and then successively every ten minutes until the hypertensive effect of U46619 is no longer blocked."}, "[2]": {"system": "arachidonic acid induced aggregation of human platelets", "assay": "Arachidonic acid induced aggregation of human platelets in vitro", "type": "cell-based", "settings": "Platelet, read-out: % Inhibition of vehicle control", "source_text": "The beneficial effects of combining one of the novel TXA2 antagonists of formula I defined hereinabove with a TXA2 synthetase inhibitor may be illustrated in vitro, for example by evaluating their effects in inhibiting arachidonic acid induced aggregation of human platelets, using standard procedures well known in the art. Thus, for example, the following results were obtained with the TXA2 antagonist described hereinafter in Ex. 2, 6 and 20 (Compound A) and the TXA2 synthetase inhibitor known as dazoxiben (Compound B): […]"}, "[3]": {"system": "U46619 induced bronchoconstriction", "assay": "Test (c): U46619 induced bronchoconstriction in Konzett-Rossler anaesthetised guinea-pig", "type": "in vivo", "settings": "2 hours after oral dosing at 0.05 mg/kg", "source_text": "(c) a bronchoconstriction test involving measuring the inhibition by a test compound of the bronchoconstriction induced in the Konzett-Rossler, anaesthetised guinea-pig model (as modified by Collier and James, Brit.J.Pharmacol., 1967, 30, 283-307) by intravenous administration of the TXA2 mimetic agent, U46619 and involving:\n(i) obtaining a cumulative dose-response curve to U46619 induced bronchoconstriction by intravenous administration of constant volumes of increasing concentrations of U46619 (0.2-4 μg/kg) in physiological saline solution and expressing bronchoconstriction as the maximum of that theoretically obtainable with no air flow to the test animal;\n(ii) generating a cumulative dose-response curve to U46619 induced bronchoconstriction at 30 minute intervals for 3 hours after oral dosing of test compound; and\n(iii) calculating a dose-ratio for the test compound (that is the ratio of concentration of U46619 required to cause 50% bronchoconstriction in the presence and absence of test compound) indicating the potency of TXA2 antagonism."}, "diamondback moths": {"system": "diamondback moths", "assay": "Catches of diamondback moths (lures)"}}, "data": [{"smiles": "O=C(O)CC/C=C\\C[C@@H]1CO[C@H](c2ccccc2Cl)O[C@@H]1c1ccccc1O", "note": "(relative stereo) [(i), 4(Z)-6-([2,4,5-cis]-2-o-chlorophenyl-4-o-hydroxyphenyl-1,3-dioxan-5-yl)hexenoic acid]", "values": [{"measurement": "pA2", "setting": "thromboxane receptor", "value": 8.02}, {"measurement": "inhibition of U46619 induced hypertension", "setting": "[1]", "value": "> 80", "unit": "%"}, {"measurement": "inhibition at 0.001 µM", "setting": "[2]; A at 10^-9 M", "value": "2.2 ± 0.8", "unit": "%"}]}, {"smiles": "N#Cc1ccccc1[C@H]1OC[C@@H](C/C=C\\CCC(=O)O)[C@@H](c2ccccc2O)O1", "note": "(relative stereo) [(ii), 4(Z)-6-([2,4,5-cis]-2-o-cyanophenyl-4-o-hydroxyphenyl-1,3-dioxan-5-yl)hexenoic acid]", "values": [{"measurement": "pA2", "setting": "thromboxane receptor", "value": 8.09}, {"measurement": "dose ratio", "setting": "[3]", "value": "> 32"}, {"measurement": "inhibition of U46619 induced hypertension", "setting": "[1]", "value": "> 80", "unit": "%"}]}, {"smiles": "N#Cc1ccc([C@H]2OC[C@@H](C/C=C\\CCC(=O)O)[C@@H](c3ccccc3O)O2)cc1", "note": "(relative stereo) [(iii)]", "values": [{"measurement": "pA2", "setting": "thromboxane receptor", "value": 7.45}, {"measurement": "dose ratio", "setting": "[3]", "value": "> 350"}, {"measurement": "inhibition of U46619 induced hypertension", "setting": "[1]", "value": "> 40", "unit": "%"}]}, {"smiles": "O=C(O)CCC/C=C\\C[C@@H]1CO[C@H](c2ccccc2Cl)O[C@@H]1c1ccccc1", "note": "(relative stereo) [(iv), 5(Z)-7-([2,4,5-cis]-2-o-chlorophenyl-4-phenyl-1,3-dioxan-5-yl)heptenoic acid, reference compound]", "values": [{"measurement": "pA2", "setting": "thromboxane receptor", "value": 6.22}]}, {"smiles": "N#Cc1ccc([C@H]2OC[C@@H](C/C=C\\CCCC(=O)O)[C@@H](c3ccccc3)O2)cc1", "note": "(relative stereo) [(v), reference compound]", "values": [{"measurement": "pA2", "setting": "thromboxane receptor", "value": 5.65}]}, {"smiles": "O=C(O)c1ccc(OCCn2ccnc2)cc1", "note": "[B]", "values": [{"measurement": "inhibition at 100 µM", "setting": "[2]; B at 10^-4 M", "value": "32.2 ± 16.3", "unit": "%"}, {"measurement": "inhibition at 10 µM", "setting": "[2]; B at 10^-5 M", "value": "4.5 ± 1.8", "unit": "%"}]}, {"smiles": "CCCC/C=C\\CCCCCCCCCCOC(C)=O", "note": "[HLA, ( --Z)-11-hexadecenyl acetate]", "values": [{"measurement": "Weekly catch week 1", "setting": "diamondback moths; week 1", "value": 0}, {"measurement": "Weekly catch week 2", "setting": "diamondback moths; week 2", "value": 1}, {"measurement": "Weekly catch week 3", "setting": "diamondback moths; week 3", "value": 5}, {"measurement": "Weekly catch week 4", "setting": "diamondback moths; week 4", "value": 3}]}]}
